Residues, ends and D or L forms follow the SMILES beside them. *: point of attachment. Propanoyl(3-maleimido) = O=C1C=CC(=O)N1CCC(=O)*

In data set [1] the test system is Mouse tail fibroblast (MTF) cells. Put plainly: siRNA cell-uptake and MFI measured by FACS after peptide-mediated transfection of labeled siRNA. It is filed as cell-based. To be noted: for % Cell-Uptake: % of total cells with intracellular labeled siRNA; for MFI: relative value. On the procedure:
SiRNA cell uptake was measured by FACS.
For the instant example, cell-uptake, mean fluorescent intensity (MFI) and cell viability was measured for each peptide. siRNA cell-uptake was measured by the presence of intracellular labeled siRNA. The cell-uptake assay determined the percentage of cells that contain the labeled siRNA. Mean Fluorescence Intensity (MFI) was used to determine the relative mean quantity of labeled siRNA that entered the cells.
A non-transfection, siRNA alone, control was also performed.
Within Table 3, “ND” means no data.
In general terms: A flow cytometer gives signals particle by particle.

A further data set is described as follows: in vitro. To be noted: C57BL/6J, mouse, mouse tail fibroblast (MTF) cells. On the procedure: Mouse tail fibroblast (MTF) cells were derived from the tails of C57BL/6J mice. Tails were removed, immersed in 70% ethanol and then cut into small sections with a razor blade. The sections were washed three times with PBS and then incubated in a shaker at 37° C. with 0.5 mg/mL collagenase, 100 units/mL penicillin and 100 μg/mL streptomycin to disrupt tissue. Tail sections were then cultured in complete media (Dulbecco's Modified […] Medium with 20% FBS, 1 mM sodium pyruvate, nonessential amino acids and 100 units/mL penicillin and 100 μg/mL streptomycin) until cells were established. Cells were cultured at 37° C., 5% CO2 in complete media as outlined above.
Cells were be plated per well in a microtiter plate the day before transfection in complete media. The siRNA was be labeled, for example with a FAM, Alexa488, Alexa647 or Cy-5 conjugate. The cationic polymer peptide and siRNA were mixed in the microtiter plate complex with cells previously with OptiMEM. 7-AAD was added to each transfection to measure cell viability. Cells were transfected for three hours at 37° C., 5% CO2. The transfection mixture was removed and the cells were washed with TE buffer for about 10 minutes at 37° C., 5% CO2. Transfected cells were transferred to a V bottom plate and centrifuged. The TE buffer was removed and the transfected cells were resuspended in fluorescence activated cell sorting (FACS) buffer.
A non-transfection, siRNA alone, control was also performed. The peptide PN183 served herein as a positive cell-uptake control.
Cell-uptake is expressed as a percentage of the total cells with intracellular labeled siRNA. Cell Viability is also expressed as a percentage where 100% represents 100% viability. The MFI value is a relative value with a higher MFI value indicating a greater amount of labeled siRNA entered the cell. Within Table 3, “ND” means no data.

Where [2] appears, read: peptide concentration 1 μM, 200 nM labeled siRNA.
[3] abbreviates: peptide concentration 1 μM, 200 nM labeled siRNA, higher = more labeled siRNA entered the cell.
Where [4] appears, read: peptide concentration 10 μM, 200 nM labeled siRNA.
The mark [5] stands for this setting: peptide concentration 10 μM, 200 nM labeled siRNA, higher = more labeled siRNA entered the cell.
Where [6] appears, read: peptide concentration 100 μM, 200 nM labeled siRNA.
[7] abbreviates: peptide concentration 100 μM, 200 nM labeled siRNA, higher = more labeled siRNA entered the cell.

As to `CC[C@H](C)[C@H](NC(=O)[C@H](C)NC(=O)CNC(=O)[C@H](Cc1ccccc1)NC(=O)[C@@H](NC(=O)[C@H](CCC(=O)O)NC(=O)[C@H](CC(N)=O)NC(=O)CNC(=O)[C@H](Cc1c[nH]c2ccccc12)NC(=O)[C@H](CCC(=O)O)NC(=O)CNC(=O)[C@H](CCSC)NC(=O)[C@@H](NC(=O)[C@H](CC(=O)O)NC(=O)[C@@H]1CCCN1C(=O)[C@H](CCC(N)=O)NC(=O)[C@H](CO)NC(=O)[C@H](CCCCN)NC(=O)[C@H](CCCCN)NC(=O)[C@H](CCCCN)NC(=O)[C@H](CCCCN)NC(=O)[C@H](CCCCN)NC(=O)[C@H](CCCCN)NC(=O)[C@H](CCCCN)NC(=O)[C@H](CCCCN)NC(=O)CCN1C(=O)C=CC1=O)[C@@H](C)CC)[C@@H](C)CC)C(=O)N[C@@H](C)C(=O)NCC(=O)N[C@@H](Cc1ccccc1)C(=O)N[C@@H](CC(C)C)C(=O)NCC(N)=O` [PN947] ({Propanoyl(3-maleimido)}-KKKKKKKKSQPDIMGEWGNEIFGAIAGFLG-NH2; N-terminus assumed), the “% Cell-Uptake” value in data set [1] (setting [2]) was 2.8%; in data set [1] (setting [4]) it was 12.3%; in data set [1] (setting [6]), 49.5%. Besides, the MFI was found to be 1.23 in data set [1] (setting [3]), 1.44 in data set [1] (setting [5]) and 4.6 in data set [1] (setting [7]). The molecule further came in with a viability at 3 h, 1 µM in “in vitro” of 98.7%. In the data set “in vitro”, this molecule displayed a viability at 3 h, 10 µM of 97.9%. The viability at 3 h, 100 µM in the data set “in vitro” was determined as 99.3%.
In the case of `CC[C@H](C)[C@H](NC(=O)[C@H](CCCCN)NC(=O)[C@@H](NC(=O)[C@H](CCC(N)=O)NC(=O)[C@H](CCCNC(=N)N)NC(=O)[C@H](CS)NC(=O)[C@@H](NC(=O)[C@H](CO)NC(=O)[C@H](CCCNC(=N)N)NC(=O)[C@H](Cc1c[nH]cn1)NC(=O)[C@H](Cc1c[nH]cn1)NC(=O)[C@H](Cc1c[nH]cn1)NC(=O)[C@H](Cc1c[nH]cn1)NC(=O)[C@H](Cc1c[nH]cn1)NC(=O)[C@@H](N)Cc1c[nH]cn1)C(C)C)[C@@H](C)CC)C(=O)N[C@@H](CS)C(=O)N[C@@H](CCCNC(=N)N)C(=O)N[C@@H](CCCNC(=N)N)C(=O)N[C@@H](CCCNC(=N)N)C(=O)NCC(=O)NCC(=O)N[C@@H](CS)C(=O)N[C@@H](Cc1ccc(O)cc1)C(=O)N[C@@H](Cc1ccc(O)cc1)C(=O)N[C@@H](CCCCN)C(=O)N[C@@H](CS)C(=O)N[C@H](C(=O)N[C@@H](CC(N)=O)C(=O)N[C@@H](CCCNC(=N)N)C(=O)N1CCC[C@H]1C(=O)N[C@@H](Cc1ccc(O)cc1)C(N)=O)[C@@H](C)O` [PN951] (H-HHHHHHRSVCRQIKICRRRGGCYYKCTNRPY-NH2), the “% Cell-Uptake” value in data set [1] (setting [2]) is 31.8%; in data set [1] (setting [4]), 80.1%; in data set [1] (setting [6]), 45.7%. Moreover, the MFI in data set [1] (setting [3]) is on record as 4.02; in data set [1] (setting [5]) it was 14.3; in data set [1] (setting [7]), 9.19. Also, in “in vitro”, the viability at 3 h, 1 µM is 97.2%. Besides, in “in vitro”, the viability at 3 h, 10 µM came out at 99.1%. In the data set “in vitro”, this molecule came in with a viability at 3 h, 100 µM of 97.9%.
Turning to “H-KETWWETWWTEWSQPGRKKRRQRRRPPQ-NH2 [PN183, reference compound]”, the percent cell-uptake result in data set [1] (concentration not given) is “approximately 59%”. Moreover, the MFI in data set [1] (concentration not given) is around 11; in data set [1] (setting [3]), 3.61; in data set [1] (setting [5]), 3.77; in data set [1] (setting [7]), 10.5. Besides, the “% Cell-Uptake” value in data set [1] (setting [2]) worked out at 9.3%; in data set [1] (setting [4]), 47.4%; in data set [1] (setting [6]), 58.9%. Moreover, in “in vitro”, the viability at 3 h, 1 µM is 96%. In addition, the viability at 3 h, 10 µM in the data set “in vitro” was 96.8%. The molecule also registered a viability at 3 h, 100 µM in the data set “in vitro” of 76.7%.
For the molecule “H-KHKHKHKHKHKHKHKHKHKH-NH2 [PN938, NH2-(Lys-His)10-amide]”, the “% Cell-Uptake” value in data set [1] (setting [2]) is recorded as 0.6%. Also, the “% Cell-Uptake” value in data set [1] (setting [4]) is given as 0.5%. In addition, the “% Cell-Uptake” value in data set [1] (setting [6]) amounted to 5.9%. In “in vitro”, the viability at 3 h, 1 µM is 97.9%; the viability at 3 h, 10 µM came to 98.6%; the viability at 3 h, 100 µM is 98.8%.
Turning to “H-KHKHKHKHKHKHKHKHKHKHKHKHKHKHKH-NH2 [PN935, NH2-(Lys-His)15-amide]”, in data set [1] (conclusion drawn from Table 3), the “intracellular delivery of siRNA (verbal conclusion from cell-uptake and cell viability)” value is recorded as “effective intracellular delivery of siRNA without negatively impacting cell viability”. The “% Cell-Uptake” value in data set [1] (setting [2]) is recorded as 20.3%; in data set [1] (setting [4]) it was 36.1%; in data set [1] (setting [6]), 24.6%. Besides, the MFI in data set [1] (setting [3]) is reported as 1.94; in data set [1] (setting [5]), 2.2; in data set [1] (setting [7]), 2.16. Besides, the viability at 3 h, 1 µM in the data set “in vitro” amounted to 98.1%. The molecule also displayed a viability at 3 h, 10 µM in “in vitro” of 97.3%. In “in vitro”, this molecule came in with a viability at 3 h, 100 µM of 96.6%.
For the molecule “H-KKKKKKKKKK-NH2 [PN932, NH2-(Lys)10-amide]”, the “% Cell-Uptake” value in data set [1] (setting [2]) was 0.4%. Moreover, the “% Cell-Uptake” value in data set [1] (setting [4]) came out at 1%. Moreover, the “% Cell-Uptake” value in data set [1] (setting [6]) is 1%. In “in vitro”, this molecule displayed a viability at 3 h, 1 µM of 97.3%; a viability at 3 h, 10 µM of 96.7%; a viability at 3 h, 100 µM of 98.4%.

One may read the viability as the share of living cells, or the viability signal relative to a control.

Source of the values: patent publication US20070275923A1, “CATIONIC PEPTIDES FOR siRNA [sequence] [sequence]” (NASTECH PHARMACEUTICAL COMPANY INC., priority 2006, published 2007).
